The values that follow are results of earlier work, collected in patent US10595479B2, “Induced mutagenesis” (Purdue Research Foundation, priority 2014, dated 2020).

This series concerns maize. Conditions: pollen EMS protocol in maize, tested molecularly.

Molecules are shown by their SMILES.

In the case of `CCOS(C)(=O)=O` [EMS, ethyl methanesulfonate], the density of mutations result is on record as “about 2 mutations per Mb of DNA”.
